Measurements: article PMC13386468 (ACS Chemical Biology, 2025)
Like-named read-outs stand apart in the source and are kept apart here.

Columns and labels:
[1] = biological target: T1, calcium-dependent protein kinase 1 (PfCDPK1, PF3D7_0217500) (Plasmodium falciparum, UniProt P62344); test: Kinobead competitive pulldown from asexual blood stage parasite lysate, mass spectrometry; format: biochemical
T1 construct: gene CDPK1

[2] = biological target: Aurora-related kinase 1 (PfArk1, PF3D7_0605300) (Plasmodium falciparum, UniProt C6KSQ1); test: KinaseSeeker competition binding assay with recombinant kinase; also Kinobead competition (Kd app […]) and conditional knockdown sensitization ([…])
[3] = biological target: T2, cAMP-dependent protein kinase catalytic subunit (PfPKAc, PF3D7_0934800) (Plasmodium falciparum, UniProt Q7K6A0); test: Kinobead competitive pulldown from asexual blood stage parasite lysate, mass spectrometry; format: biochemical
T2 construct: with PfPKAr (PF3D7_1223100)
T2 sequence (Q7K6A0 1-342): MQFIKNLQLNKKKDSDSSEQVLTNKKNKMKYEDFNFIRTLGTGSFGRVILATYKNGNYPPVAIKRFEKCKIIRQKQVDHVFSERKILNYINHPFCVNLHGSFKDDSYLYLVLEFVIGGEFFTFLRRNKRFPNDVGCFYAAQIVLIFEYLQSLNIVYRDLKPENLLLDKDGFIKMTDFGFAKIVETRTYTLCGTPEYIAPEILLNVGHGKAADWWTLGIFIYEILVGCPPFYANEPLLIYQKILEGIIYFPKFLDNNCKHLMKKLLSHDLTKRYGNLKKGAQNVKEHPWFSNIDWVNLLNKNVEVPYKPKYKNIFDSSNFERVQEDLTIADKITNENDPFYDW
T2 sequence (Q7KQK0 1-441 partner): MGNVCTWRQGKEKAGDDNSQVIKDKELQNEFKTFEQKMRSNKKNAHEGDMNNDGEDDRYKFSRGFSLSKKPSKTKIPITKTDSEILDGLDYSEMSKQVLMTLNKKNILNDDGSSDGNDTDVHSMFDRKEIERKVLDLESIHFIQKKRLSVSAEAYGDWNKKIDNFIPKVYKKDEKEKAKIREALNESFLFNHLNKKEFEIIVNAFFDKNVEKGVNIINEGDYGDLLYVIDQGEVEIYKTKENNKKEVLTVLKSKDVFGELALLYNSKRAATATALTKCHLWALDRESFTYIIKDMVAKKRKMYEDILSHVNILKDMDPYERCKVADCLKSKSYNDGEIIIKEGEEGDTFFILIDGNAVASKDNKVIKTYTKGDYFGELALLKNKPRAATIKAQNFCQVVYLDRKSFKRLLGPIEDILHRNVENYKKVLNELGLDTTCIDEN

[4] = biological target: T3, glycogen synthase kinase 3 β (PfGSK3β, PF3D7_0312400) (Plasmodium falciparum, UniProt O77344); test: KinaseSeeker competition binding assay with recombinant kinase; also Kinobead competition (IC50 […]); settings: read-out: IC50 value ± SEM or SD ^c
T3 sequence (O77344 1-440): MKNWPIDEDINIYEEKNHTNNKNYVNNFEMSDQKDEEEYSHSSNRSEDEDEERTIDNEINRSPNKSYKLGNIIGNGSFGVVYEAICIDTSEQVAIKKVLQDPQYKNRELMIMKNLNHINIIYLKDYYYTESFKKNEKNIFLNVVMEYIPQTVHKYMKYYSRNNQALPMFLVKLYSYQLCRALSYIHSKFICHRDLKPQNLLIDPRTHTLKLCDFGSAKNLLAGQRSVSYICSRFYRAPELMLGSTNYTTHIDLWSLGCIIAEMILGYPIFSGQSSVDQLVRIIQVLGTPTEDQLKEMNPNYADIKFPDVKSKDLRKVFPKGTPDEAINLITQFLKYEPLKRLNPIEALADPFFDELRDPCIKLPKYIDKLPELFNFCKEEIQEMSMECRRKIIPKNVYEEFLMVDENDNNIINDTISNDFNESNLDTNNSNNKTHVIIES

[5] = biological target: T4, 3-phosphoinositide-dependent protein kinase 1 (PfPDK1, PF3D7_1121900) (Plasmodium falciparum, UniProt Q8IIE7); test: Kinobead competitive pulldown from asexual blood stage parasite lysate, mass spectrometry; format: biochemical
T4 sequence (Q8IIE7 1-525): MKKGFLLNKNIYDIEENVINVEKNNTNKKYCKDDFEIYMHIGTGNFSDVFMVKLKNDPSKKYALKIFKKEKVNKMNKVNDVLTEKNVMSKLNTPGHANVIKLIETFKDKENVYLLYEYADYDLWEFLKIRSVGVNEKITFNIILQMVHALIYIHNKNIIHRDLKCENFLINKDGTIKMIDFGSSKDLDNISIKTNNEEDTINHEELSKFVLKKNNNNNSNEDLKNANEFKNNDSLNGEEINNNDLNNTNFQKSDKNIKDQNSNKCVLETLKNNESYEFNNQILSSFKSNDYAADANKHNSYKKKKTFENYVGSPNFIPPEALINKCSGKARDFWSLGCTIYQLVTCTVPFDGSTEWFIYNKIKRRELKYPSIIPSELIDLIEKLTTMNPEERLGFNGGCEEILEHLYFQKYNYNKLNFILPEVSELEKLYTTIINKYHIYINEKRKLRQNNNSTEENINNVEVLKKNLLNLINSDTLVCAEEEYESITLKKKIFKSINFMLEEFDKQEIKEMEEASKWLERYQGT

[6] = biological target: T5, Serine/threonine protein kinase ; PF3D7_0605300 ; C6KSQ1 (Plasmodium falciparum, UniProt C6KSQ1); test: biochemical; parameters: species or system Plasmodium falciparum asexual blood stage lysate; Kinobeads competitive pulldown from asexual blood stage P. falciparum extract, TMT quantitative mass spectrometry, apparent Kd; settings: Kdapp, apparent Kd, Kinobeads competition
T5 sequence (C6KSQ1 1-353): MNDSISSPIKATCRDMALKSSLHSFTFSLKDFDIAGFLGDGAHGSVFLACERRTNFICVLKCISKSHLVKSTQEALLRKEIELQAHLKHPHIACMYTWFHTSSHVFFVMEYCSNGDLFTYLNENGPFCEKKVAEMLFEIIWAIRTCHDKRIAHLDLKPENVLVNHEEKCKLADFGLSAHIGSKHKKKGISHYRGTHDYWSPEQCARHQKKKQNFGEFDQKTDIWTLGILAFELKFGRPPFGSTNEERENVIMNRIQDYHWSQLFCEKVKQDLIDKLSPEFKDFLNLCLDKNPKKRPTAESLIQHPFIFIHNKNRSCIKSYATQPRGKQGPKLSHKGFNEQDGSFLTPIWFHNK
Description: Eluted kinases are quantified in a dose-dependent manner via mass spectrometry. […] Data and error bars represent the mean and SD from two independent experiments. […] Data are plotted as the mean with error bars representing the SEM where N,n = 3,2.

[7] = tested on: T6, Plasmodium falciparum PfDd2; test: microbe, parasite or virus in culture; parameters: species or system P. falciparum asexual blood stages; asexual blood stage growth inhibition, pLDH read-out; settings: read-out: Mean IC50 ± SEM (µM), pLDH
T6 construct: Dd2
Protocol: (§1) Parasite growth inhibition was calculated relative to untreated controls, and IC50 values were determined by fitting dose-response curves. Each assay plate included appropriate growth, vehicle, and positive control wells.

[8] = tested on: T7, Plasmodium falciparum PfCam3.II; test: microbe, parasite or virus in culture; parameters: species or system P. falciparum asexual blood stages; asexual blood stage growth inhibition, SYBR Green I read-out; settings: read-out: Mean IC50 ± SEM (µM), SYBR Green I
T7 construct: Cam3.II
Protocol: as §1

[9] = tested on: T8, Plasmodium falciparum PfNF54 (WT); test: microbe, parasite or virus in culture; parameters: species or system P. falciparum asexual blood stages; asexual blood stage growth inhibition, SYBR Green I read-out; settings: read-out: Mean IC50 ± SEM (µM), SYBR Green I
T8 construct: NF54
Protocol: as §1

[10] = tested on: T9, Plasmodium falciparum PfRF7; test: microbe, parasite or virus in culture; parameters: species or system P. falciparum asexual blood stages; asexual blood stage growth inhibition, SYBR Green I read-out; settings: read-out: Mean IC50 ± SEM (µM), SYBR Green I
T9 construct: RF7
Protocol: as §1

in vitro = test: in vitro; parameters: HepG2 liver cell cytotoxicity; settings: human, hepg2 cells; read-out: Liver cytotoxicity HepG2 IC50
Description: (§2) Moderate activity was also observed against immature and late-stage gametocytes, in the low micromolar range, as well as against liver stages, in the submicromolar range (Table and Supplementary Table S3).

[11] = tested on: T10, Plasmodium berghei Liver-stage PbLuc; test: microbe, parasite or virus in culture; parameters: liver-stage Plasmodium berghei luciferase inhibition assay
T10 construct: PbLuc (luciferase reporter)
Description: as §2

[12] = tested on: T8, Plasmodium falciparum PfNF54 (WT); test: microbe, parasite or virus in culture; parameters: species or system P. falciparum asexual blood stages; asexual blood stage growth inhibition, modified [3H]-hypoxanthine incorporation; settings: read-out: PfNF54 control (–Shield-1) IC50 (nM)

T1 sequence (P62344 2-524): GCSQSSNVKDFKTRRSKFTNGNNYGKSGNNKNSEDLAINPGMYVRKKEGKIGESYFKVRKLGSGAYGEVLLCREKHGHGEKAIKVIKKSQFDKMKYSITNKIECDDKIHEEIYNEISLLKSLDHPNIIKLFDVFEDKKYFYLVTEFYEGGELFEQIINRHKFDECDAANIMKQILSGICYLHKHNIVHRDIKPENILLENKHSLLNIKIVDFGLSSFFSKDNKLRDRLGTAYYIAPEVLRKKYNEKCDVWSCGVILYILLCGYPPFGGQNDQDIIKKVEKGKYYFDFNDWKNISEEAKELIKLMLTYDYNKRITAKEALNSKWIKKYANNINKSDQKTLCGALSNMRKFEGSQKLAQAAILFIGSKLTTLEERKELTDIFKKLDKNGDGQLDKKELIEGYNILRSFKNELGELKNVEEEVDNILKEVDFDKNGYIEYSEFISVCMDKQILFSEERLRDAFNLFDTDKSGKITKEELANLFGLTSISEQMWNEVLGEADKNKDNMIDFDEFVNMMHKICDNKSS

SMILES: O=c1[nH]c2ccc(Cl)cc2c(N[C@@H]2CN3CCC2CC3)c1-c1nc2ccccc2[nH]1 [CHIR-124]
- Kd [1]: 40 nM
- IC50 [2]: 380 ± 70 nM
- Kd [3]: 610 nM
- IC50 [4]: 200 ± 20 nM
- Kd [5]: 100 nM
- Kd ([6]; Experiment ID=X048537): 180 nM
- Kd ([6]; Experiment ID=X048538): 156 nM
- IC50 [7]: 0.44 ± 0.05 µM
- IC50 [8]: 0.016 ± 0.002 µM
- IC50 [9]: 0.033 ± 0.002 µM
- IC50 [10]: 0.01 ± 0.001 µM
- CC50 (in vitro): 4300 nM
- IC50 [11]: 310 nM
- IC50 [12]: 36 ± 7 nM
